Results as given in patent US20260049101A1, “TOPICAL TREATMENT OF SKIN CANCER USING OLIGOPEPTIDES” (BACOBA AG, priority 2022, published 2026).
Numbered stars: 1 amine (or outer) side, 2 acyl side, 3 side chain; on linkers, the order of the positions; unused ones are H or OH. Square brackets hold non-standard residues; d marks the D form. Peptide text beside a SMILES is read from it. * marks the point of attachment. X2 = COc1ccc2nc(C[C@H](N[*:1])C(=O)[*:2])sc2c1; NH(2-morpholinoethyl) = C(CN1CCOCC1)N*; NH(1-CH2NMe2-cBu) = CN(C)CC1(N*)CCC1; Oxazole4CO(2-Me) = Cc1nc(C(=O)*)co1; X8 = COc1ccc2cc(C(=O)*)c(=O)oc2c1; Benzoyl(4-F) = O=C(c1ccc(F)cc1)*; hCha = N[C@@H](CCC1CCCCC1)C(=O)O; Aib = CC(C)(N)C(=O)O; βAla = NCCC(=O)O

Tested on: cutaneous squamous cell carcinoma cell line SCC12
Assay: In vitro anti-proliferative assay (resazurin) in SCC12
Format: cell-based
Details: SCC12, 72 hours
Description: Methodology. The cutaneous squamous cell carcinoma cell culture SCC12 was cultivated in keratinocyte-SFM media (KSFM, Cat #17005042, Gibco) supplemented with human recombinant epidermal growth factor 1-53 (EGF 1-53) and bovine pituitary extract (BFE).
Vehicle treated wells were set to 100% viability.

Compound	IC50 [nM]
COc1ccc2cc(C(=O)N3CCC[C@H]3C(=O)N[C@@H](CCC3CCCCC3)C(=O)N[C@@H](CC(C)C)C(=O)NC(C)(C)C(=O)N[C@@H](CC(C)C)C(=O)N[C@@H](CC(C)C)C(=O)NC(C)(C)C(=O)NC(C)(C)C(=O)NCCC(=O)NC3(CN(C)C)CCC3)c(=O)oc2c1 [Compound 21287, (2S)-2-[(2S)-4-cyclohexyl-2-{[(2S)-1-(7-methoxy-2-oxo-2H-chromene-3-carbonyl)pyrrolidin-2-yl]formamido}butanamido]-N-(1-{[(1S)-1-{[(1S)-1-({1-[(1-{[2-({1-[(dimethylamino)methyl]cyclobutyl}carbamoyl)ethyl]carbamoyl}-1-methylethyl)carbamoyl]-1-methylethyl}carbamoyl)-3-methylbutyl]carbamoyl}-3-methylbutyl]carbamoyl}-1-methylethyl)-4-methylpentanamide] (X8-P[hCha]L[Aib]LL[Aib][Aib][βAla]-{NH(1-CH2NMe2-cBu)})	595
COc1ccc2nc(C[C@H](NC(=O)[C@@H]3CCCN3C(=O)c3ccc(F)cc3)C(=O)N[C@@H](CC(C)C)C(=O)NC(C)(C)C(=O)N[C@@H](CC(C)C)C(=O)N[C@@H](CC(C)C)C(=O)NC(C)(C)C(=O)NC(C)(C)C(=O)NCCC(=O)NC3(CN(C)C)CCC3)sc2c1 [Compound 7844, (2S)—N-(1-{[(1S)-1-{[(1S)-1-({1-[(1-{[2-({1-[(dimethylamino)methyl]cyclobutyl}carbamoyl)ethyl]carbamoyl}-1-methylethyl)carbamoyl]-1-methylethyl}carbamoyl)-3-methylbutyl]carbamoyl}-3-methylbutyl]carbamoyl}-1-methylethyl)-2-[(2S)-2-{[(2S)-1-(4-fluorobenzoyl)pyrrolidin-2-yl]formamido}-3-(6-methoxy-1,3-benzothiazol-2-yl)propanamido]-4-methylpentanamide] ({Benzoyl(4-F)}-P[X2]L[Aib]LL[Aib][Aib][βAla]-{NH(1-CH2NMe2-cBu)})	546
Cc1nc(C(=O)N2CCC[C@H]2C(=O)N[C@@H](CCC2CCCCC2)C(=O)N[C@@H](CC(C)C)C(=O)NC(C)(C)C(=O)N[C@@H](CC(C)C)C(=O)N[C@@H](CC(C)C)C(=O)NC(C)(C)C(=O)NC(C)(C)C(=O)NCCC(=O)NC2(CN(C)C)CCC2)co1 [Compound 6025, (2S)-2-[(2S)-4-cyclohexyl-2-{[(2S)-1-(2-methyl-1,3-oxazole-4-carbonyl)pyrrolidin-2-yl]formamido}butanamido]-N-(1-{[(1S)-1-{[(1S)-1-({1-[(1-{[2-({1-[(dimethylamino)methyl]cyclobutyl}carbamoyl)ethyl]carbamoyl}-1-methylethyl)carbamoyl]-1-methylethyl}carbamoyl)-3-methylbutyl]carbamoyl}-3-methylbutyl]carbamoyl}-1-methylethyl)-4-methylpentanamide] ({Oxazole4CO(2-Me)}-P[hCha]L[Aib]LL[Aib][Aib][βAla]-{NH(1-CH2NMe2-cBu)})	396
CC(C)C[C@H](NC(=O)[C@H](CCC1CCCCC1)NC(=O)[C@@H]1CCCN1C(=O)c1ccc(F)cc1)C(=O)NC(C)(C)C(=O)N[C@@H](CC(C)C)C(=O)N[C@@H](CC(C)C)C(=O)NC(C)(C)C(=O)NC(C)(C)C(=O)NCCC(=O)NCCN1CCOCC1 [Compound 8341, (2S)-2-[(2S)-4-cyclohexyl-2-{[(2S)-1-(4-fluorobenzoyl)pyrrolidin-2-yl]formamido}butanamido]-4-methyl-N-(1-methyl-1-{[(1S)-3-methyl-1-{[(1S)-3-methyl-1-{[1-methyl-1-({1-methyl-1-[(2-{[2-(morpholin-4-yl)ethyl]carbamoyl}ethyl)carbamoyl]ethyl}carbamoyl)ethyl]carbamoyl}butyl]carbamoyl}butyl]carbamoyl}ethyl)pentanamide] ({Benzoyl(4-F)}-P[hCha]L[Aib]LL[Aib][Aib][βAla]-{NH(2-morpholinoethyl)})	1020
